Reference: patent US20050222270A1, “Prolonged administration of NMDA antagonist drug and safener drug to create improved stable neural homeostasis” (priority 2004, published 2005)

Legend:
[1] = system: patient with intractable post-herpetic trigeminal neuralgia; assay: Ketamine infusion with clonidine and MgSO4 in a patient with post-herpetic trigeminal neuralgia; assay type: in vivo, human
Source text: A person had suffered for about 1.5 years from intractable post-herpetic trigeminal neuralgia (commonly known as shingles).

[2] = system: patients with CRPS-1 (RSD); assay: Sustained ketamine infusion (with clonidine/magnesium) in patients with CRPS-1 (RSD) chronic neuropathic pain
Source text: One of the coinventors herein (Correll, a physician) was involved in those tests, in Australia, using ketamine “mono-therapy” (i.e., without also administering a safener drug, such as clonidine).
In response, the anesthesiologist began to administer clonidine, a standard and conventional treatment for controlling high blood pressure. […] The anesthesiologist then began researching the scientific, medical, and patent literature on the subject, and soon discovered prior work done by the third inventor (Olney, a neurology researcher who specializes in animal models) on the subject of safener drugs that can reduce or prevent the toxic side effects of NMDA blocker drugs such as ketamine.
A person had suffered for roughly 9 years from intractable chronic pain, diagnosed as CRPS-1 and/or RSD, in their right leg and foot. This pain apparently was related to circulatory problems in their right leg. […] The contents of that article are incorporated herein by reference.
They were treated with […] of MgSO4 (infused in 5% dextrose in water, or D5W) and 0.1 mg clonidine (oral tablet) prior to ketamine. […] A second magnesium infusion was performed at 24 hr.

[3] = system: depressed patients; conditions: single one-time dosage; cited from earlier work
[4] = system: patients with compulsive eating disorders (mainly anorexic); conditions: 2 to 9 infusions, 10-hour infusion period, 20 mg per hour; cited from earlier work

O=S(=O)([O-])[O-].[Mg+2] [MgSO4, magnesium sulfate]
effect of magnesium coadministered along with ketamine on pain ([1]; Example 3, 2 g MgSO4 prior to and 2 g later in ketamine infusion): synergistic pain-reducing effect

Clc1cccc(Cl)c1N=C1NCCN1 [clonidine]
effect of adding clonidine to ketamine infusion on pain ([2]; patient in ketamine mono-therapy test, clonidine given for rising blood pressure): substantial improvement in their pain reduction

CNC1(c2ccccc2Cl)CCCCC1=O (stereo not drawn) [ketamine]
effect on depression [3]: transient relief of depression | patients with prolonged remission of compulsive thoughts about food, diet, and weight [4]: Nine of the 15 | time patient remained pain-free after ketamine treatment ([2]; Example 1, person, 9-year CRPS-1/RSD in right leg and foot): roughly 18 months | pain status at last contact ([2]; Example 2, about 12 months after treatment): still pain-free | time until CNS side effects (slurring of speech) resolved ([2]; Example 2, ketamine infusion increased to 20 mg/hr): ≤ 24 h | time of ketamine infusion until essentially complete relief from pain ([2]; Example 2, person, ketamine 10-20 mg/hr i.v. with clonidine 0.1 mg every 12 hours and MgSO4): 2 to 3 days | pain status at last contact ([1]; Example 3, about 12 months after treatment, 48 hours ketamine infusion, clonidine started during first day, 2 x 2 g MgSO4): still largely abated
